From patent US20160201112A1, “NANOSENSOR FOR DETECTING THE ACTIVITY OF GLYCOSAMINOGLYCAN-CLEAVING ENZYMES AND USES THEREOF” (VIRGINIA COMMONWEALTH UNIVERSITY, priority 2013, published 2016) come the findings set out here.

Entries after “also recorded” stand apart in the source; their conditions may differ.

The subject of one test is heparitinase. Put plainly: Au-heparin-dye nanosensor fluorescence assay with heparitinase and OSCS-spiked heparin (96-well plate). The test is classed as biochemical. Particulars: in the presence of 10% w/w OSCS. Here is the method: (§1) Once it was established that enzyme action causes the fluorescence probe to recover from being quenched, a heparitinase enzyme inhibition study was carried out in the presence of OSCS-contaminated heparin. For this study, a mixture of heparitinase I, II, and III was incubated with (a) heparin (200 μg), (b) heparin with 10% w/w chondroitin sulfate A and C and (c) heparin with 10% w/w OSCS. The resulting oligosaccharides were then analyzed by analytical HPLC. […] The enzyme activity on the nanosensor should be maximal at low OSCS concentration and minimal at high OSCS concentration. Consequently, the fluorescence quenching of the dye should be minimal at low OSCS concentrations (and measured fluorescence should be high) and quenching should be maximal at high OSCS concentrations (and measured fluorescence should below).
In order to develop an analytical method and kit for determining contamination in heparin, serial dilutions of OSCS were performed at log increment concentrations from 0.1 μg/μL to 0.1 femtogram (fg)/μL. Next, standard heparin solutions (10 μg) were spiked serially with OSCS solutions from 1 μg (10% w/w) to 0.1 fg (10^−9% w/w) of OSCS “contamination” resulting in 11 separate tests. Heparin (10 μg) and OSCS (10 μg) were utilized as positive and negative controls, respectively. […]

Test [1] relates to mixture of heparitinase I, II, and III. Put plainly: Heparitinase enzyme inhibition study, heparin disaccharides analysed by HPLC. Particulars: 10% w/w OSCS in heparin (90% heparin + 10% w/w OSCS). It counts as biochemical. Here is the method:
as §1

Turning to oversulfated chondroitin sulfate [OSCS], the “heparitinase action on Au-heparin-dye nanosensor (fluorescence quenching)” value with heparitinase was “heparitinases could not act on the Au-heparin-dye nanosensor and fluorescence quenching was maintained”. Moreover, the “inhibition of heparitinase enzyme activity (HPLC profile of heparin disaccharides)” value in test [1] is “completely inhibits the enzyme; also recorded: powerful inhibitor”.
